The results in this text go back to US20240050428A1 (Cullgen (Shanghai), Inc., priority 2020, published 2024).

Read-outs that look alike come from different tables or passages of the source. Bounds are passed on as bounds.

Experiment [1] relates to MV4;11 cells. Briefly: Cell viability assay (CellTiter-Glo) in MV4;11 cells, alone or with gilteritinib. It counts as cell-based. To be noted: Homo sapiens, MV4-11, 72 h, MV4;11 cells, three days, CellTiter-Glo, read-out: MV4. On the technique in general: Cellular ATP, detected with luciferase, serves as a proxy for viable cell number.
The subject of experiment [2] is MOLM-13 cells. Kind of experiment: Cell viability assay (CellTiter-Glo) in MOLM-13 cells, alone or with gilteritinib. In kind it is cell-based. To be noted: Homo sapiens, MOLM-13, 72 h, MOLM-13 cells, three days, CellTiter-Glo.
[3] abbreviates: compound alone (without gilteritinib), 11 IC50.
Setting [4] is: compound with gilteritinib 10 nM, 11 IC50 gilteritinib.
The mark [5] stands for this setting: compound alone (without gilteritinib), read-out: MOLM-13 IC50.
[6] abbreviates: compound with gilteritinib 20 nM, read-out: MOLM-13 IC50 gilteritinib.

On to `COc1ccc(-c2cnn([C@H]3C[C@H](CCCNc4ccc5c(c4)C(=O)N(C4CCC(=O)NC4=O)C5=O)C3)c2)nc1` (stereo partly drawn) [GS-462, 2-(2,6-dioxopiperidin-3-yl)-5-((3-(trans-3-(4-(5-methoxypyridin-2-yl)-1H-pyrazol-1-yl)cyclobutyl)propyl)amino)isoindoline-1,3-dione], for which the IC50 fell in the range of 100 to 1000 nM in experiment [1] (setting [3]), 10 to 100 nM in experiment [1] (setting [4]), 100 to 1000 nM in experiment [2] (setting [5]) and 10 to 100 nM in experiment [2] (setting [6]).
For `CN1CCN(c2ccc3ncc(-c4cn([C@H]5C[C@H](CNc6ccc7c(c6)C(=O)N(C6CCC(=O)NC6=O)C7=O)C5)nc4C4CC4)nc3c2)CC1` (stereo partly drawn) [GS-463, 5-(((trans-3-(3-cyclopropyl-4-(7-(4-methylpiperazin-1-yl)quinoxalin-2-yl)-1H-pyrazol-1-yl)cyclobutyl)methyl)amino)-2-(2,6-dioxopiperidin-3-yl)isoindoline-1,3-dione], the IC50 in experiment [1] (setting [3]) is 10 to 100 nM; in experiment [1] (setting [4]), less than 10 nM; in experiment [2] (setting [5]), 10 to 100 nM; in experiment [2] (setting [6]), less than 10 nM.
As for `O=C1CCC(N2C(=O)c3ccc(NC[C@H]4C[C@H](n5cc(-c6cnc7ccc(N8CCOCC8)cc7n6)c(C6CC6)n5)C4)cc3C2=O)C(=O)N1` (stereo partly drawn) [GS-464, 5-(((trans-3-(3-cyclopropyl-4-(7-morpholinoquinoxalin-2-yl)-1H-pyrazol-1-yl)cyclobutyl)methyl)amino)-2-(2,6-dioxopiperidin-3-yl)isoindoline-1,3-dione], the IC50 in experiment [1] (setting [3]), in experiment [1] (setting [4]), in experiment [2] (setting [5]) and in experiment [2] (setting [6]) was less than 10 nM throughout.
Regarding `Cn1cccc(-c2cn([C@H]3C[C@H](CNc4ccc5c(c4)C(=O)N(C4CCC(=O)NC4=O)C5=O)C3)nc2C2CC2)c1=O` (stereo partly drawn) [GS-465, 5-(((trans-3-(3-cyclopropyl-4-(1-methyl-2-oxo-1,2-dihydropyridin-3-yl)-1H-pyrazol-1-yl)cyclobutyl)methyl)amino)-2-(2,6-dioxopiperidin-3-yl)isoindoline-1,3-dione], the IC50 is greater than 1000 nM in experiment [1] (setting [3]), 100 to 1000 nM in experiment [1] (setting [4]), greater than 1000 nM in experiment [2] (setting [5]) and 10 to 100 nM in experiment [2] (setting [6]).
Consider `O=C1CCC(N2C(=O)c3ccc(NC[C@H]4C[C@H](n5cc(-c6cccc(C7CC7)n6)c(C6CC6)n5)C4)cc3C2=O)C(=O)N1` (stereo partly drawn) [GS-466, 5-(((trans-3-(3-cyclopropyl-4-(6-cyclopropylpyridin-2-yl)-1H-pyrazol-1-yl)cyclobutyl)methyl)amino)-2-(2,6-dioxopiperidin-3-yl)isoindoline-1,3-dione], for which the IC50 in experiment [1] (setting [3]) was 10 to 100 nM; in experiment [1] (setting [4]), 10 to 100 nM; in experiment [2] (setting [5]), 100 to 1000 nM; in experiment [2] (setting [6]), 10 to 100 nM.
In the case of `O=C1CCC(N2C(=O)c3ccc(NC[C@H]4C[C@H](n5cc(-c6ncccc6C6CC6)c(C6CC6)n5)C4)cc3C2=O)C(=O)N1` (stereo partly drawn) [GS-467, 5-(((trans-3-(3-cyclopropyl-4-(3-cyclopropylpyridin-2-yl)-1H-pyrazol-1-yl)cyclobutyl)methyl)amino)-2-(2,6-dioxopiperidin-3-yl)isoindoline-1,3-dione], the IC50 in experiment [1] (setting [3]) is 10 to 100 nM; in experiment [1] (setting [4]), less than 10 nM; in experiment [2] (setting [5]), 10 to 100 nM; in experiment [2] (setting [6]), 10 to 100 nM.
With `O=C1CCC(N2C(=O)c3ccc(NC[C@H]4C[C@H](n5cc(C6CCCCC6)c(C6CC6)n5)C4)cc3C2=O)C(=O)N1` (stereo partly drawn) [GS-468, 5-(((trans-3-(4-cyclohexyl-3-cyclopropyl-1H-pyrazol-1-yl)cyclobutyl)methyl)amino)-2-(2,6-dioxopiperidin-3-yl)isoindoline-1,3-dione], the IC50 in experiment [1] (setting [3]) lay in the range of 10 to 100 nM; in experiment [1] (setting [4]), 10 to 100 nM; in experiment [2] (setting [5]) it was 100 to 1000 nM; in experiment [2] (setting [6]), 10 to 100 nM.
`O=C1CCC(N2C(=O)c3ccc(CCN4CC(n5cc(-c6cnc7ccccc7n6)c(C6CC6)n5)C4)cc3C2=O)C(=O)N1` (stereo not shown) [GS-469, 5-(2-(3-(3-cyclopropyl-4-(quinoxalin-2-yl)-1H-pyrazol-1-yl)azetidin-1-yl)ethyl)-2-(2,6-dioxopiperidin-3-yl)isoindoline-1,3-dione]: the IC50 in experiment [1] (setting [3]), in experiment [1] (setting [4]), in experiment [2] (setting [5]) and in experiment [2] (setting [6]) was greater than 1000 nM each time.
As for `O=C1CCC(N2C(=O)c3ccc(NC[C@H]4C[C@H](n5nc(C6CC6)c6cccnc65)C4)cc3C2=O)C(=O)N1` (stereo partly drawn) [GS-470, 5-(((trans-3-(3-cyclopropyl-1H-pyrazolo[3,4-b]pyridin-1-yl)cyclobutyl)methyl)amino)-2-(2,6-dioxopiperidin-3-yl)isoindoline-1,3-dione], the IC50 is 10 to 100 nM in experiment [1] (setting [3]), less than 10 nM in experiment [1] (setting [4]), 10 to 100 nM in experiment [2] (setting [5]) and less than 10 nM in experiment [2] (setting [6]).
With `O=C1CCC(N2C(=O)c3ccc(NC[C@H]4C[C@H](n5cc(-c6cccc(OC7CC7)n6)c(C6CC6)n5)C4)cc3C2=O)C(=O)N1` (stereo partly drawn) [GS-471, 5-(((trans-3-(4-(6-cyclopropoxypyridin-2-yl)-3-cyclopropyl-1H-pyrazol-1-yl)cyclobutyl)methyl)amino)-2-(2,6-dioxopiperidin-3-yl)isoindoline-1,3-dione], the IC50 fell in the range of 10 to 100 nM in experiment [1] (setting [3]), 10 to 100 nM in experiment [1] (setting [4]), 100 to 1000 nM in experiment [2] (setting [5]) and 10 to 100 nM in experiment [2] (setting [6]).
In the case of `CN1CCCC(c2cn([C@H]3C[C@H](CNc4ccc5c(c4)C(=O)N(C4CCC(=O)NC4=O)C5=O)C3)nc2C2CC2)C1` (stereo partly drawn) [GS-472, 5-(((trans-3-(3-cyclopropyl-4-(1-methylpiperidin-3-yl)-1H-pyrazol-1-yl)cyclobutyl)methyl)amino)-2-(2,6-dioxopiperidin-3-yl)isoindoline-1,3-dione], the IC50 in experiment [1] (setting [3]), in experiment [1] (setting [4]), in experiment [2] (setting [5]) and in experiment [2] (setting [6]) was greater than 1000 nM in each case.
Consider `O=C1CCC(N2C(=O)c3ccc(NC[C@H]4C[C@H](n5nc(C6CC6)c6ccncc65)C4)cc3C2=O)C(=O)N1` (stereo partly drawn) [GS-473, 5-(((trans-3-(3-cyclopropyl-1H-pyrazolo[3,4-c]pyridin-1-yl)cyclobutyl)methyl)amino)-2-(2,6-dioxopiperidin-3-yl)isoindoline-1,3-dione], for which the IC50 in experiment [1] (setting [3]), in experiment [1] (setting [4]), in experiment [2] (setting [5]) and in experiment [2] (setting [6]) was greater than 1000 nM in each case.
Regarding `O=C1CCC(N2C(=O)c3ccc(NC[C@H]4C[C@H](n5nc(C6CC6)c6cnccc65)C4)cc3C2=O)C(=O)N1` (stereo partly drawn) [GS-474, 5-(((trans-3-(3-cyclopropyl-1H-pyrazolo[4,3-c]pyridin-1-yl)cyclobutyl)methyl)amino)-2-(2,6-dioxopiperidin-3-yl)isoindoline-1,3-dione], the IC50 in experiment [1] (setting [3]), in experiment [1] (setting [4]), in experiment [2] (setting [5]) and in experiment [2] (setting [6]) was greater than 1000 nM throughout.
In the case of `O=C1CCC(N2C(=O)c3ccc(NC[C@H]4C[C@H](n5nc(C6CC6)c6ncccc65)C4)cc3C2=O)C(=O)N1` (stereo partly drawn) [GS-475, 5-(((trans-3-(3-cyclopropyl-1H-pyrazolo[4,3-b]pyridin-1-yl)cyclobutyl)methyl)amino)-2-(2,6-dioxopiperidin-3-yl)isoindoline-1,3-dione], the IC50 in experiment [1] (setting [3]), in experiment [1] (setting [4]), in experiment [2] (setting [5]) and in experiment [2] (setting [6]) was greater than 1000 nM throughout.
On to `O=C1CCC(N2Cc3cc(CNC(=O)c4cccc(N5CCC(n6cc(-c7cnc8ccccc8n7)cn6)CC5)c4)ccc3C2=O)C(=O)N1` (stereo not shown) [GS-476, N-((2-(2,6-dioxopiperidin-3-yl)-1-oxoisoindolin-5-yl)methyl)-3-(4-(4-(quinoxalin-2-yl)-1H-pyrazol-1-yl)piperidin-1-yl)benzamide], for which the IC50 in experiment [1] (setting [3]), in experiment [1] (setting [4]), in experiment [2] (setting [5]) and in experiment [2] (setting [6]) was less than 10 nM in each case.
Turning to `O=C1CCC(N2C(=O)c3ccc(NCCCCCC(=O)N4CCC(n5cc(-c6cnc7cccc(C8=CCNCC8)c7n6)cn5)CC4)cc3C2=O)C(=O)N1` (stereo not shown) [GS-480, 2-(2,6-dioxopiperidin-3-yl)-5-((6-oxo-6-(4-(4-(8-(1,2,3,6-tetrahydropyridin-4-yl)quinoxalin-2-yl)-1H-pyrazol-1-yl)piperidin-1-yl)hexyl)amino)isoindoline-1,3-dione], the IC50 in experiment [1] (setting [3]) is 10 to 100 nM; in experiment [1] (setting [4]), less than 10 nM; in experiment [2] (setting [5]), 100 to 1000 nM; in experiment [2] (setting [6]) it was less than 10 nM.
With `O=C1CCC(N2C(=O)c3ccc(NCCCCCC(=O)N4CCC(c5cnc6ccccc6c5)CC4)cc3C2=O)C(=O)N1` (stereo not shown) [GS-481, 2-(2,6-dioxopiperidin-3-yl)-5-((6-oxo-6-(4-(quinolin-3-yl)piperidin-1-yl)hexyl)amino)isoindoline-1,3-dione], the IC50 was less than 10 nM in experiment [1] (setting [3]), less than 10 nM in experiment [1] (setting [4]), 10 to 100 nM in experiment [2] (setting [5]) and less than 10 nM in experiment [2] (setting [6]).
With `O=C(Cc1cccc(N2CCN(c3ccccn3)CC2)c1)NCc1ccc2c(c1)CN(C1CCC(=O)NC1=O)C2=O` (stereo not shown) [GS-483, N-((2-(2,6-dioxopiperidin-3-yl)-1-oxoisoindolin-5-yl)methyl)-2-(3-(4-(pyridin-2-yl)piperazin-1-yl)phenyl)acetamide], the IC50 in experiment [1] (setting [3]), in experiment [1] (setting [4]), in experiment [2] (setting [5]) and in experiment [2] (setting [6]) was less than 10 nM each time.
As for `O=C1CCC(N2Cc3cc(OCCCCC(=O)N4CCC(n5cc(-c6cnc7ccccc7n6)cn5)CC4)ccc3C2=O)C(=O)N1` (stereo not shown) [GS-484, 3-(1-oxo-5-((5-oxo-5-(4-(4-(quinoxalin-2-yl)-1H-pyrazol-1-yl)piperidin-1-yl)pentyl)oxy)isoindolin-2-yl)piperidine-2,6-dione], the IC50 is greater than 1000 nM in experiment [1] (setting [3]), 100 to 1000 nM in experiment [1] (setting [4]), 100 to 1000 nM in experiment [2] (setting [5]) and 100 to 1000 nM in experiment [2] (setting [6]).
